Like-named read-outs stand apart in the source and are kept apart here.
Tests used:
mTOR = mTOR inhibition (RPS6 phosphorylation status), In-Cell Western; type: cell-based, human
Method: In-Cell Western assays were performed, following a standard immuno-staining protocol. Briefly, WI-38 cells were treated with small molecules for 24 hrs, and then processed and incubated with primary antibody cocktail (Cell Signaling, mouse anti-RPS, 1:25; rabbit-anti-pRPS6-(Ser-235/236), 1:100) overnight at 4° C. Next day, samples were processed and incubated with fluorophore-conjugated secondary antibodies (Cell Signaling, DyLight 680-goat anti-mouse, 1:500; DyLight 800-goat anti-rabbit, 1:1,000). Images were collected on an Odyssey Imager (LI-COR) and analyzed with the Image Studio Lite software (version 5.0.21).
Mammalian target of rapamycin (mTOR) is a crucial regulator of cell growth and metabolism and has been implicated in aging and many diseases, including cancer, diabetes and neurological diseases (Dazert and Hall, 2011; Zoncu et al., 2011). […] In addition, the anti-diabetes drug metformin (Kalender et al., 2010), as well as other AMPK activators such as 2-deoxy-D-glucose (Inoki et al., 2003) and AICAR (Shaw et al., 2004), could inhibit mTORC1. Applicants examined the effects of our molecules (at three doses, 5 μM, 10 μM and 20 μM) on the phosphorylation status of ribosomal protein S6 (RPS6), a readout of mTOR activity, to ask whether they could inhibit mTOR.
In-Cell Western assays were performed, following the same procedures to analyze DNA-damage markers. WI-38 cells were incubated with small molecules for 24 hrs, and then processed and incubated with primary antibody cocktail (mouse anti-RPS, 1:25; rabbit-anti-pRPS6, 1:100) overnight at 4° C. Next day, samples were processed and incubated with fluorophore-conjugated secondary antibodies (goat anti-mouse, 1:500; goat anti-rabbit, 1:1,000) in antibody dilution buffer. Images were collected on an Odyssey Imager (LI-COR) and analyzed with the Image Studio Lite software.

WI-38 cells [1] = details: for Assay 1: H2O2-resistant: YES/NO, if NO, possibly due to repeated freezing/thawing of stocks; for EC50: read-out: Est. ED50
WI-38 cells [2] = assay: CdCl2 (cadmium) resistance assay; type: cell-based, human; details: YES/NO; for Assay 2: Cadmium-resistant: * indicates partial
Method: (§1) For many stress conditions tested previously, one significant correlation to longevity is the cellular resistance to H2O2 or CdCl2. Applicants then tested these small molecules, at five different final concentrations (0.25 μM to 20 μM), for cadmium and MMS resistance in WI-38 cells.
(§2) The setups on 384-well plates and incubation times were the same as for H2O2 until the time of incubation with the stressors, which was 12 hours for both cadmium and MMS assays. Applicants tested several conditions, including conditions used to assay fibroblasts from long-lived animals (Salmon et al., 2005). These conditions produced better results with the positive controls (KEAP1 and AKT1 siRNAs) in the MMS assay. Thus, for MMS, the cells were shifted from growth media—OptiMEM+10% FBS, to DMEM (Gibco)+2% BSA (no serum) just before adding small molecules, which occurred 24 hours before MMS addition.
(§3) Isolated small molecules were tested for MMS and cadmium resistance twice in two independent assays. Each small molecule was analyzed at five different concentrations (0.25 μM to 20 μM final concentration), with technical triplicates for each dose. Data were analyzed using a global variance t-test.

FOXO3 = assay: qPCR analysis of FOXO3-regulated genes; type: cell-based, human; details: Homo sapiens, 24 h, Assay 10(m), at 10 uM, qPCR
Method: (§4) For qPCR analysis, WI-38 cells were treated with small molecules (at 10 μM) (biological quadruplicates) for 24 hrs and processed for RNA isolation and reverse transcription (RT) with the Cells-to-Ct Kit (Life Technologies), following manufacturer's instructions. RT products were diluted with H2O and used for qPCR analysis on an ABI 7300 system (Life Technologies) (technical triplicates). Relative expression levels of target genes were normalized to the genes B2M, PPIA and GAPDH. To knock down the expression of FOXO3 or NRF2, WI-38 cells were transfected, using the RNAiMAX reagents (Life Technologies), with siRNA oligos (at 10 nM final concentration, 10 ml culture medium) for FOXO3 (Life Technologies) or NRF2 (Integrated DNA Technologies) on 10-cm petri dishes for 36 hrs, and then detached and aliquoted onto 96-well (for qPCR analysis) or 384-well plates (for H2O2-stress treatment). ˜24 hrs later, small molecules were introduced and incubated with cells for 24 hrs. Cells were then either processed with the Cells-to-Ct Kit to prepare RT products for qPCR analysis or subjected to H2O2 (700 μM) for 3 hrs and assayed for viability. The knockdown efficiency of FOXO3 or NRF2 was checked at 36 hrs post-transfection and at the end as well.
(§5) For qPCR analysis, WI-38 cells were treated with small molecules (at 10 μM) (biological quadruplicate) for 24 hrs and processed for RNA isolation and reverse transcription (RT) with the Cells-to-Ct Kit (Life Technologies), following manufacturer's instructions. RT products were diluted with H2O and used for qPCR analysis on a LightCycler 480 system (Roche) (technical triplicates). Relative expression levels of target genes were normalized to the genes B2M, PPIA and GAPDH. To knock down the expression of FOXO3 or NRF2, WI-38 cells were transfected with siRNA oligos (at 10 nM final concentration) for FOXO3 (Life Technologies) or NRF2 on 10-cm petri dish for 36 hrs, and then detached and aliquoted onto 96-well plates. ˜24 hrs later, small molecules were introduced and incubated with cells for 24 hrs. Cells were then processed with the Cells-to-Ct Kit to prepare RT products for qPCR analysis. The knockdown efficiency of FOXO3 or NRF2 was checked at 36 hrs post-transfection and at the end as well.
Many perturbations that increase lifespan and stress resistance in animals do so in a FOXO-dependent fashion (Kenyon, 2010c). Humans have several FOXO genes, but FOXO3, which promotes stress resistance in mammalian cell culture (Kops et al., 2002; Nemoto and Finkel, 2002; Tran et al., 2003), is the one that has been linked to exceptional longevity in humans (Anselmi et al., 2009; Flachsbart et al., 2009; Li et al., 2009; Pawlikowska et al., 2009; Soerensen et al., 2010; Willcox et al., 2008). FOXO1, in contrast, appears to be responsible for some symptoms of diabetes in mouse models (Cheng and White, 2011). For this reason, applicants have focused on analyzing potential ability of our small molecules to activate FOXO3. […] Another 4 molecules (Gr-7A, Gr-7C, O12 and O23) could induce robust expression (greater than 1.5-fold) of at least 2 FOXO3 target genes.

[3] = system: human dermal fibroblast (HDF) primary cells; assay: H2O2-resistance in primary human dermal fibroblasts; type: cell-based; details: YES/NO
C. elegans = C. elegans lifespan assays (liquid and plate); type: in vivo, Caenorhabditis elegans; details: Caenorhabditis elegans, at 66 uM
NRF2 [4] = assay: qPCR analysis of NRF2-regulated genes; type: cell-based, human; details: Homo sapiens, 24 h, Assay 12(o), at 10 uM, qPCR
Method: as §4, §5
NRF2/SKN-1, the oxidative stress and xenobiotic phase 2 detoxification protein, can extend animal lifespan (Sykiotis and Bohmann, 2008; Tullet et al., 2008). Applicants analyzed these small molecules for their ability to increase the expression of NRF2-regulated genes, including HMOX1 (heme oxygenase (decycling) 1; anti-oxidant), NQO1 (NAD(P)H dehydrogenase, quinone 1; phase 2 detoxification enzyme), GCLC (glutamate-cysteine ligase, catalytic) and GSTM1 (glutathionine S transferase) (Hur and Gray, 2011; Suzuki et al., 2013).

WI-38 cells [5] = assay: MMS resistance assay; type: cell-based, human; details: YES/NO; for Assay 3: MMS-resistant: * indicates partial; for Assay 5: Triple resistant: H2O2, cadmium and MMS
Method: as §1, §2, §3

NRF2 [6] = assay: in vitro; type: cell-based, human; details: 10 uM; YES/NO
Method: as §4, §5
Of these, O15 and O20 consistently (in 3 of 3 experiments) required NRF2 to promote H2O2-resistance, and their resistance capacities were reduced by ˜90% on average upon NRF2 knockdown under conditions tested.

WI-38 cells [7] = details: Assay 8(k); without H2O2, at 10 uM
Method: WI-38 cells were seeded on 384-well plates for 24 hrs and then incubated with small molecules for 24 hrs. […] Images were collected on an INCell Analyzer 2000 (GE) and analyzed with the Developer software.

[8] = dose response 0.6-20 μM, H2O2-resistance
[9] = read-out: Induction of FOXO3-regulated genes: SOD2 normalized fold-change
[10] = Assay 2(z), 1.0 × 10^9 bacteria/ml, wild type + FuDR (2012 July), read-out: Lifespan assay in liquid
[11] = Assay 3(aa), 2.5 × 10^9 bacteria/ml, wild type + FuDR, read-out: Lifespan assay in liquid
[12] = read-out: Induction of NRF2-regulated genes: HMOX1 normalized fold-change
[13] = read-out: Induction of NRF2-regulated genes: NQO1 normalized fold-change
[14] = Assay 4(ab), 2.0 × 10^10 bacteria/ml, CF512 worms, no FuDR, read-out: Lifespan assay on plates

Row | SMILES | Assay 1: H2O2-resistant (WI-38 cells [1]) | EC50 (WI-38 cells [1]; [8]) [µM] | Assay 4: H2O2- & Cd-resistant (WI-38 cells [2]) | Assay 2: Cadmium-resistant (WI-38 cells [2]) | fold induction at 10 µM (FOXO3; [9]) | Assay 6: H2O2-resistant, at 10 uM, human dermal fibroblast (HDF) primary cells [3] | ILS at 66 µM (C. elegans; [10]) [%] | ILS at 66 µM (C. elegans; [11]) [%] | fold induction at 10 µM (NRF2 [4]; [12]) | fold induction at 10 µM (NRF2 [4]; [13]) | Assay 3: MMS-resistant (WI-38 cells [5]) | Assay 5: Triple resistant (WI-38 cells [5]) | PI cell-death imaging without H2O2 (indicating potential toxicity) (WI-38 cells [7]) | ILS at 66 µM (C. elegans; [14]) [%] | also measured
1 | CO[C@H]1C[C@@H]2CC[C@@H](C)[C@@](O)(O2)C(=O)C(=O)N2CCCC[C@H]2C(=O)O[C@H]([C@H](C)C[C@@H]2CC[C@@H](O)[C@H](OC)C2)CC(=O)[C@H](C)/C=C(\C)[C@@H](O)[C@@H](OC)C(=O)[C@H](C)C[C@H](C)/C=C/C=C/C=C/1C [rapamycin, reference compound] |  |  |  |  |  |  |  |  |  |  |  |  |  |  | Reduction of ratio of pRPS6/RPS6 by rapamycin (mTOR): ≥ 90%; Reduction of phosphorylated form of RPS6 by rapamycin (normalized) (mTOR; control): 95%
2 | Oc1nc(-c2ccccn2)nc2c1Cc1cc(F)ccc1O2 [O24] | YES | 7.5 | YES | YES | 1.2 | YES | 13 | 2.3 | 9.55 | 1.48 | YES | YES |  |  | fold induction at 10 µM (FOXO3; read-out: Induction of FOXO3-regulated genes: SESN1 normalized fold-change): 1.93; fold induction at 10 µM (FOXO3; read-out: Induction of FOXO3-regulated genes: TXNIP normalized fold-change): 0.61; fold induction at 10 µM (NRF2 [4]; read-out: Induction of NRF2-regulated genes: GCLC normalized fold-change): 0.7; fold induction at 10 µM (NRF2 [4]; read-out: Induction of NRF2-regulated genes: GSTM1 normalized fold-change): 1.24
3 | Oc1nc2ccccc2n2cccc12 [O4] | YES |  | YES | YES |  | YES |  |  |  |  | YES | YES |  |  | EC50 (WI-38 cells [1]): 11.2 µM; Assay 17: NRF2-dependency for H2O2-resistance (NRF2 [6]): YES
4 | Cc1ccc(S(=O)(=O)/C(C#N)=C/c2c(Oc3ccc(Cl)c(C)c3)nc3ccccn3c2=O)cc1 [Gr-5C] |  | 15.7 |  |  |  | YES | 32.6 | 1.6 | 1.67 | 1.49 |  |  | YES | -6.9 | 
5 | CO/C(O)=C1\C(C)=NC2=C(C(=O)CC(c3cccs3)C2)C1c1ccc(F)c(F)c1 (stereo not drawn) [O5] | YES | 20 | YES | YES | 0.77 | YES | 48.9 | 18.9 | 2.15 |  | YES | YES | YES | 46.2 | fold induction at 10 µM (FOXO3; read-out: Induction of FOXO3-regulated genes: GADD45A normalized fold-change): 0.45; ILS at 66 µM (C. elegans; Assay 5(ac), 1.0 × 10^11 bacteria/ml, CF512 worms, no FuDR, read-out: Lifespan assay on plates): 46.3%; ILS at 66 µM (C. elegans; Assay 6(ad), 2.0 × 10^10 bacteria/ml, CF512 worms, no FuDR, read-out: Lifespan assay on plates): 10.2%; ILS at 66 µM (C. elegans; Assay 7(ae), 1.0 × 10^11 bacteria/ml, CF512 worms, no FuDR, read-out: Lifespan assay on plates): 32%
